# Test results published in PMC3817851, “Enzyme activity effects of N-terminal His-tag attached to catalytic sub-unit of phosphoinositide-3-kinase” (Bioscience Reports, 2013).
# What was measured:
# Assay type in all cases: biochemical
# p110γ (PI 3-Kγ) [1] = target: T1, p110γ (PI 3-Kγ) (Homo sapiens, UniProt P48736); assay: HTRF lipid kinase assay
# T1 construct: gene PIK3CG; catalytic subunit only, N-His6-rTEV tag (tag removed by rTEV); baculovirus/Sf9
# p110γ (PI 3-Kγ) [2] = target: T1, p110γ (PI 3-Kγ); assay: HTRF kinetics, […] ATP; conditions: PI([…])P2 co-substrate, His-tag removed
# [3] = target: T2, p110β (PI 3-Kβ, p110β/p85α) (Homo sapiens, UniProt P42338); assay: HTRF kinetics, […] ATP; conditions: PI([…])P2 co-substrate, His-tag removed
# T2 construct: gene PIK3CB; full-length p110β with N-His6-rTEV tag (tag removed by rTEV) co-expressed with full-length p85α; baculovirus/Sf9; IMAC, MonoQ; heterodimer; with Phosphatidylinositol 3-kinase regulatory subunit alpha
# T2 sequence (P42338 whole entry): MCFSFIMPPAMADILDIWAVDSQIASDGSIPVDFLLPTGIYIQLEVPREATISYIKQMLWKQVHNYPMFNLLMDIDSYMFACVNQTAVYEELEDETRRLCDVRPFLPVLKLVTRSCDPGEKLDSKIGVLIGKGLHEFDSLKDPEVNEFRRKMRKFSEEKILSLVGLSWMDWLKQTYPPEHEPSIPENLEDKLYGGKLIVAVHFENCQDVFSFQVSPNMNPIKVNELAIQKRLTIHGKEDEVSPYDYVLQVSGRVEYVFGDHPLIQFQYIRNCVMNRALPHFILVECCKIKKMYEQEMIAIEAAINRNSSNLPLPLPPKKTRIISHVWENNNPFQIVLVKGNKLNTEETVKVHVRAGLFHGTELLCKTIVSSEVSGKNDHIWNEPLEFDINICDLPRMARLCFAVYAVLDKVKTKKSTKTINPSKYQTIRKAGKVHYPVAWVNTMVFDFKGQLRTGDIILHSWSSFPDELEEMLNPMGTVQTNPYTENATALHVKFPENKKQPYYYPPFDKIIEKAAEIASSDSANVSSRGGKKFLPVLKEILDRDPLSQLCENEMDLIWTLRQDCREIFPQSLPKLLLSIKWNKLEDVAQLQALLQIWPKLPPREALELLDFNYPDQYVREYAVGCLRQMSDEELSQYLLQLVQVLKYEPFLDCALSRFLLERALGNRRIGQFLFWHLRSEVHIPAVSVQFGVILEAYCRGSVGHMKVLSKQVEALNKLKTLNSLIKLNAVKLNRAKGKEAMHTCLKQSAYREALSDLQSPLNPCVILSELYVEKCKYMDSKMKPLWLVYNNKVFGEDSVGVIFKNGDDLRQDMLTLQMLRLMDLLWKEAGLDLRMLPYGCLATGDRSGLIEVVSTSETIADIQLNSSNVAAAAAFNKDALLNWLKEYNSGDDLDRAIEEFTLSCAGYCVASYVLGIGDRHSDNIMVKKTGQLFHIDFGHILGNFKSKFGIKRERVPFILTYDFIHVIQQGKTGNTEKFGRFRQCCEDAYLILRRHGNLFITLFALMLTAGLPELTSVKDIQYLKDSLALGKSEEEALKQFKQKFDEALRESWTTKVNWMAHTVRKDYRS
# T2 sequence (P27986 2-724 partner): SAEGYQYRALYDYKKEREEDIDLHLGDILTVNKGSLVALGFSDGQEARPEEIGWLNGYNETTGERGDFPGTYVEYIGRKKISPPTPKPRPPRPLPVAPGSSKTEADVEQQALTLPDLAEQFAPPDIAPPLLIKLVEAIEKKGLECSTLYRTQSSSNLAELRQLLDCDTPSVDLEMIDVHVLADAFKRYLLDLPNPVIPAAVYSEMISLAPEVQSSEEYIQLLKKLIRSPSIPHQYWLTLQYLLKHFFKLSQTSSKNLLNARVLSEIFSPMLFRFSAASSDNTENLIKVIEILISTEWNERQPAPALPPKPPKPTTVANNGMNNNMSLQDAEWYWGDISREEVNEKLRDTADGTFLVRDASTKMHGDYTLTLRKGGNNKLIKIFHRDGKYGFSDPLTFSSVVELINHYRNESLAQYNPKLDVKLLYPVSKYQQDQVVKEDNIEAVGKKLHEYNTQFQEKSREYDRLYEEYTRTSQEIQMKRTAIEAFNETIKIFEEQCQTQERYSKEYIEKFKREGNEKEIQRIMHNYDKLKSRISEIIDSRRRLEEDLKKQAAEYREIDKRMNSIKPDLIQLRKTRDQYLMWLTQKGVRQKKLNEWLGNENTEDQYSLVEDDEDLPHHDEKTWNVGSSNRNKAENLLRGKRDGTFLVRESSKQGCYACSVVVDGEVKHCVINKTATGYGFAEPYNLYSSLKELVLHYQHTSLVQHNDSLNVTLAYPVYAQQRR
# [4] = target: T3, p110δ (PI 3-Kδ, p110δ/p85α) (Homo sapiens, UniProt O00329); assay: HTRF kinetics, […] ATP; conditions: PI([…])P2 co-substrate, His-tag removed
# T3 construct: gene PIK3CD; full-length p110δ with N-His6-rTEV tag (tag removed by rTEV) co-expressed with full-length p85α; baculovirus/Sf9; IMAC, MonoQ; heterodimer; with Phosphatidylinositol 3-kinase regulatory subunit alpha
# T3 sequence (O00329 whole entry): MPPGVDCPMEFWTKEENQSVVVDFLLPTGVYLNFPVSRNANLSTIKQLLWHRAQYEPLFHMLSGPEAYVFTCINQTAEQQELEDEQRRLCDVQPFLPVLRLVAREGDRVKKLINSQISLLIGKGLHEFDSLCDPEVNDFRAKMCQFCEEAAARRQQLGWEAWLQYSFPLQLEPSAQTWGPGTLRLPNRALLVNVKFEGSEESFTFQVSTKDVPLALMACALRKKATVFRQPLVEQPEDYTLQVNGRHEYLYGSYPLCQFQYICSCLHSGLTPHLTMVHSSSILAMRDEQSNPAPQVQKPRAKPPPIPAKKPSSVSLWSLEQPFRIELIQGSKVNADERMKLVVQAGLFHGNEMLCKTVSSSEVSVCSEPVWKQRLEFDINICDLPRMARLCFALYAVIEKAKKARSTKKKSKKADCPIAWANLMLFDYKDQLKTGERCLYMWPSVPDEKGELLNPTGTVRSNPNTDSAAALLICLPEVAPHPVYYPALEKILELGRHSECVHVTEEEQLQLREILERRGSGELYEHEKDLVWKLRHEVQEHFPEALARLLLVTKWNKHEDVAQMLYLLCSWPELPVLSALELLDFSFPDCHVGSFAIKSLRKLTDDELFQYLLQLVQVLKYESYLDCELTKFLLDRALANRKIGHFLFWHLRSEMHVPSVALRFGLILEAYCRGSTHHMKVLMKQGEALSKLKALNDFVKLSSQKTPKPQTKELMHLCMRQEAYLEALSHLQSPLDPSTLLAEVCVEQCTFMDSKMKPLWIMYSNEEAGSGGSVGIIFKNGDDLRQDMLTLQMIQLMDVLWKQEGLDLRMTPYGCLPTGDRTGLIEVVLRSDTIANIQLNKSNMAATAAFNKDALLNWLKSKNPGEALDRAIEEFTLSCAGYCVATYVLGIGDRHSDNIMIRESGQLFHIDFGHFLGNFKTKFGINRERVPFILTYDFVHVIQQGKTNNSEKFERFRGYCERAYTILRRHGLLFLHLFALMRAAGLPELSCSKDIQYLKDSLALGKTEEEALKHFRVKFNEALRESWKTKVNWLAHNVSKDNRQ
# T3 sequence (P27986 2-724 partner): as the sequence (P27986 2-724 partner) above
# [5] = target: T4, p110α (PI 3-Kα, p110α/p85α) (Homo sapiens, UniProt P42336); assay: HTRF kinetics, […] ATP; conditions: PI([…])P2 co-substrate, His-tag removed
# T4 construct: gene PIK3CA; full-length p110α with N-His6-rTEV tag (tag removed by rTEV) co-expressed with full-length p85α; baculovirus/Sf9; IMAC, MonoQ; heterodimer; with Phosphatidylinositol 3-kinase regulatory subunit alpha
# T4 sequence (P42336 whole entry): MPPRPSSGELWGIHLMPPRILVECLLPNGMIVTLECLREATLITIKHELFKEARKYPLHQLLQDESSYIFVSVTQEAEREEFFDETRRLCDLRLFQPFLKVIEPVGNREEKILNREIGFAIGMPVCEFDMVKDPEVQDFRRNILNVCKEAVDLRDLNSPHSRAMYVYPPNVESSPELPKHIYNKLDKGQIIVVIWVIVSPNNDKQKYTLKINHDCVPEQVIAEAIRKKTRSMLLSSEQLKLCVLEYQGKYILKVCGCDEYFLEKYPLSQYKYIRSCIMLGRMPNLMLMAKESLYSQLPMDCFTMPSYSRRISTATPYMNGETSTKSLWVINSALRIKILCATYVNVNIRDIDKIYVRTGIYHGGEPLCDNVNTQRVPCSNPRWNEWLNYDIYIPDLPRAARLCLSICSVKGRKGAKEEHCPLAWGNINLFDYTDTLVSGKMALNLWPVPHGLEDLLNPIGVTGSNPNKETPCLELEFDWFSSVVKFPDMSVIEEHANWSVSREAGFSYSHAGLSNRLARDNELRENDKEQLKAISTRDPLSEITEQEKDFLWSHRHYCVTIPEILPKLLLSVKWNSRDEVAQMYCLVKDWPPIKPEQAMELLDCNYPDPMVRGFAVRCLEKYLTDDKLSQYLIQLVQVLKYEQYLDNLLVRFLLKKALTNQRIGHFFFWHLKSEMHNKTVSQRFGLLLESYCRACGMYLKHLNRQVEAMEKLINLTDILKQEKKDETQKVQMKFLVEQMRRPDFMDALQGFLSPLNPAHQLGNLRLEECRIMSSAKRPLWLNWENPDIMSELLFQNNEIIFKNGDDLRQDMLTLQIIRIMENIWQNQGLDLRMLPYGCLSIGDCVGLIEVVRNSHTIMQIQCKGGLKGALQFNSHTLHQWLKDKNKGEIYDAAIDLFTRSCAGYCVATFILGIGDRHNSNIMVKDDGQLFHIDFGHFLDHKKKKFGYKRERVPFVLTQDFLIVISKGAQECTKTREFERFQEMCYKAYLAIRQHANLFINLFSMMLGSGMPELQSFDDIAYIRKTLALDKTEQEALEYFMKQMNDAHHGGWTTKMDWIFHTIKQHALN
# T4 sequence (P27986 2-724 partner): as the sequence (P27986 2-724 partner) above
# [6] = target: T2, p110β (PI 3-Kβ, p110β/p85α); assay: HTRF lipid kinase assay; conditions: […] ATP, PI([…])P2 substrate, His-tag removed
# T1 sequence (P48736 whole entry): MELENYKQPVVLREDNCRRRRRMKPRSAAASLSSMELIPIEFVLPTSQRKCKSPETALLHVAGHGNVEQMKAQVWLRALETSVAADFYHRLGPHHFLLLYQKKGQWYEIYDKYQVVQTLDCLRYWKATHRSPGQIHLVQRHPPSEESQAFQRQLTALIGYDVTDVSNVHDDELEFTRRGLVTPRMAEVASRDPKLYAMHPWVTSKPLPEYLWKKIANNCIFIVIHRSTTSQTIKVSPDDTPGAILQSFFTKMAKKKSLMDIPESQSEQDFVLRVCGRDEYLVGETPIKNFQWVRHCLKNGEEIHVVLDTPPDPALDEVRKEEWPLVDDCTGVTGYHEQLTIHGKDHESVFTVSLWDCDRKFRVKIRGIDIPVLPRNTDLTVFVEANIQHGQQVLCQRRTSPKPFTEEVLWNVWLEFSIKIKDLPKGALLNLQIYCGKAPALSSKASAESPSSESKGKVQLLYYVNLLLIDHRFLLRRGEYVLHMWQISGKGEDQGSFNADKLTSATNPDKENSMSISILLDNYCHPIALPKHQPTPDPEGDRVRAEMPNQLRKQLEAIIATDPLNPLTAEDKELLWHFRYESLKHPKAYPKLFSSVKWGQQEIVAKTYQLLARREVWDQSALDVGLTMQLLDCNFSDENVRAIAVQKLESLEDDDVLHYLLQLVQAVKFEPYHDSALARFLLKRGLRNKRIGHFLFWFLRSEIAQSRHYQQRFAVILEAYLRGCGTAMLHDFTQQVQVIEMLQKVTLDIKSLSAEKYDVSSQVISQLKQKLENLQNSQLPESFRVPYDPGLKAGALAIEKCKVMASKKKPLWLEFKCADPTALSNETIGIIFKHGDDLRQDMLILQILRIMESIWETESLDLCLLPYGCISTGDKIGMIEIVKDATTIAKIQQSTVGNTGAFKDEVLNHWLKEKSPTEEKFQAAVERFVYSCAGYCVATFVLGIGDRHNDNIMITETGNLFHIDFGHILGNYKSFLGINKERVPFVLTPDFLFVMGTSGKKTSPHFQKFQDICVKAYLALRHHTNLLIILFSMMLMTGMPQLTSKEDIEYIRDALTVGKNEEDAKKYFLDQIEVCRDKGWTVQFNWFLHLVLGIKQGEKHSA
smiles,measurement,setting,value
Cc1ccc([N+](=O)[O-])cc1S(=O)(=O)N(C)/N=C/c1cnc2ccc(Br)cn12 [PIK-75],IC50,p110γ (PI 3-Kγ) [1],26 nM
Nc1ncnc2c1ncn2[C@@H]1O[C@H](COP(=O)(O)OP(=O)(O)OP(=O)(O)O)[C@@H](O)[C@H]1O [ATP],Km,p110γ (PI 3-Kγ) [2],(B) Km for ATP in μM
same,Km,[3],(B) Km for ATP in μM
same,Km,[4],(B) Km for ATP in μM
same,Km,[5],(B) Km for ATP in μM
Cc1cc([C@H](C)Nc2ccccc2)c2oc(N3CCOCC3)cc(=O)c2c1 [PIK108],IC50,[6],14 nM
